Laboratory results as given in patent US8207156B2, “Substituted pyrazoline compounds, their preparation and use as medicaments” (Laboratorios Del Dr. Esteve, S.A., priority 2005, dated 2012).
Structures can show the parent of a compound that is named as a salt.

Each compound was assayed against recombinant human cannabinoid 1 receptor (CB1) (Homo sapiens, UniProt P21554) (assay: In vitro determination of antagonism to CB1-receptor ([35S]GTPγS binding assay, CHO cell membranes)). Settings: compound at 1 μM against agonist WIN 55,212-2 (3 nM to 3 μM); effect of Rimonabant (1 μM) defined as 100%.
Chain of recombinant human cannabinoid 1 receptor (CB1) (P21554 whole entry): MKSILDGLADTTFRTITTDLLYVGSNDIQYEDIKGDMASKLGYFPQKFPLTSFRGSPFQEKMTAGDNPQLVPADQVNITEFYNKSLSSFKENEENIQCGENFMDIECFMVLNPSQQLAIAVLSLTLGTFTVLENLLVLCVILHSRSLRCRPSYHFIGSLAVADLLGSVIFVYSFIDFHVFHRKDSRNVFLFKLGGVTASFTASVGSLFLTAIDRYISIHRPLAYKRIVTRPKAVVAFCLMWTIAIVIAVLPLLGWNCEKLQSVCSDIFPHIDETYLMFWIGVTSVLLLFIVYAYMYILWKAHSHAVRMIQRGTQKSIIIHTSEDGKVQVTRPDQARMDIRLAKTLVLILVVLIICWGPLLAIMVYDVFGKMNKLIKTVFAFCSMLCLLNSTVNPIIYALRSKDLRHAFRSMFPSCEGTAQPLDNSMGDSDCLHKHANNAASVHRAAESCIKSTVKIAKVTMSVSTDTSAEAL
Assay type: biochemical
Procedure: Chinese hamster ovary (CHO) cells stably expressing recombinant human cannabinoid 1 receptor (CB1) were cultured in nutrient mixture Ham's F 12 supplemented with 10% heat-inactivated fetal bovine serum, 2 mM L-glutamine, 50 U/ml penicillin, 50 U/ml streptomycin and 0.5 mg/ml geneticin. In order to obtain cells, culture flasks were washed twice with phosphate buffered saline and scraped. Then, cells were collected by centrifugation (200×g, 10 min) and stored dry at −80° C. Cells were homogenized in ice-cold 20 mM HEPES, 10 mM EDTA (pH 7.5) and centrifuged at 40,000×g for 15 min at 4° C. The membrane pellet was resuspended in 20 mM HEPES, 0.1 mM EDTA (pH 7.5) and centrifuged for 15 min at 4° C. The final membrane pellet was resuspended in 20 mM HEPES, 0.1 mM EDTA (pH 7.5), and divided in aliquots and stored at −80° C. until use.
The reaction was performed in 96-well plates. Membranes (15 μg protein/well) were incubated for 60 min at 30° C. in buffer (50 mM HEPES, 100 mM KCl, 5 mM MgCl2,1 mM EDTA, 0.1% wt/vol bovine serum albumin, 5 μM GDP, saponin (10 μg/ml), 0.5 nM [^35S]GTPγS, pH 7.4) with compound at a final concentration of 1 μM in either the absence or presence of agonist WIN 55, 212-2 between 3 nM and 3 μM. The incubation was terminated by rapid filtration through Millipore Multiscreen glass fiber FB, and rinsed two-times with ice-cold assay buffer. Filter plates were dried and 30 μl of scintillation liquid was added. Radioactivity was determined using a Wallac Microbeta Trilux. Each experiment was performed at least in duplicate. A WIN 55, 212-2 dose-response experiment either alone or in the presence of Rimonabant (1 μM) was systematically performed.
The average of basal [^35S]GTPγS binding was subtracted from all binding data. In order to compare the antagonism results from one screening campaign to another one, the difference between the maximal agonist effect of WIN 55, 212-2 alone, and the maximal antagonism effect due to WIN 55, 212-2 plus Rimonabant (1 μM) was defined as 100%.

Antagonism [%] | Structure (SMILES)
62% | O=C(C1=NN(c2ccc(Cl)cc2Cl)C(c2ccc(Cl)cc2)C1)N1Cc2ccccc2C1 (centres unmarked) [Example 39, [5-(4-Chloro-phenyl)-1-(2,4-dichloro-phenyl)-4,5-dihydro-1H-pyrazol-3-yl]-(1,3-dihydro-isoindol-2-yl)-methanone]
27% | O=C(NN1C(=O)c2cccc3cccc(c23)C1=O)C1=NN(c2ccc(Cl)cc2Cl)C(c2ccc(Cl)cc2)C1 (centres unmarked) [Example 24, 5-(4-Chloro-phenyl)-1-(2,4-dichloro-phenyl)-4,5-dihydro-1H-pyrazole-3-carboxylic acid (1,3-dioxo-1H,3H-benzo[de]isoquinolin-2-yl)-amide]
14% | O=C(O)[C@@H]1CCCN1C(=O)C1=NN(c2ccc(Cl)cc2Cl)C(c2ccc(Cl)cc2)C1 (some centres unmarked) [Example 53, 1-[5-(4-Chloro-phenyl)-1-(2,4-dichloro-phenyl)-4,5-dihydro-1H-pyrazole-3-carbonyl]-pyrrolidine-2-carboxylic acid]
39% | CCOC(=O)N1CCN(C(=O)C2=NN(c3ccc(Cl)cc3Cl)C(c3ccc(Cl)cc3)C2)CC1 (centres unmarked) [Example 44, 4-[5-(4-Chloro-phenyl)-1-(2,4-dichloro-phenyl)-4,5-dihydro-1H-pyrazole-3-carbonyl]-piperazine-1-carboxylic acid ethyl ester]
119% | O=C(NN1CC2CCCC2C1)C1=NN(c2ccc(Cl)cc2Cl)C(c2ccc(Cl)cc2)C1 (centres unmarked) [Example 10, 5-(4-Chloro-phenyl)-1-(2,4-dichloro-phenyl)-4,5-dihydro-1H-pyrazole-3-carboxylic acid (hexahydro-cyclopenta[c]pyrrol-2-yl)-amide]
45% | O=C(C1=NN(c2ccc(Cl)cc2Cl)C(c2ccc(Cl)cc2)C1)N1CCCCCCC1 (centres unmarked) [Example 38, Azocan-1-yl-[5-(4-chloro-phenyl)-1-(2,4-dichloro-phenyl)-4,5-dihydro-1H-pyrazol-3-yl]-methanone]
52% | O=C(NN1CCOCC1)C1=NN(c2ccc(Cl)cc2Cl)C(c2ccc(Br)cc2)C1 (centres unmarked) [Example 67, 5-(4-Bromo-phenyl)-1-(2,4-dichloro-phenyl)-4,5-dihydro-1H-pyrazole-3-carboxylic acid morpholin-4-ylamide]
65% | CC1CCC(NC(=O)C2=NN(c3ccc(Cl)cc3Cl)C(c3ccc(Cl)cc3)C2)CC1 (centres unmarked) [Example 17, 5-(4-Chloro-phenyl)-1-(2,4-dichloro-phenyl)-4,5-dihydro-1H-pyrazole-3-carboxylic acid (4-methyl-cyclohexyl)-amide]

Structure (SMILES) | Antagonism [%]
CCCCCC(C)NC(=O)C1=NN(c2ccc(Cl)cc2Cl)C(c2ccc(Cl)cc2)C1 (centres unmarked) [Example 35, 5-(4-Chloro-phenyl)-1-(2,4-dichloro-phenyl)-4,5-dihydro-1H-pyrazole-3-carboxylic acid (1-methyl-hexyl)-amide] | 68%
CN(C)C(=O)C1=NN(c2ccc(Cl)cc2Cl)C(c2ccc(Cl)cc2)C1 (centres unmarked) [Example 51, 5-(4-Chloro-phenyl)-1-(2,4-dichloro-phenyl)-4,5-dihydro-1H-pyrazole-3-carboxylic acid dimethylamide] | 21%

Same assay, conditions: compound at 1 μM against agonist WIN 55,212-2 (3 nM to 3 μM); effect of Rimonabant (1 μM) defined as 100%; hydrochloride

Antagonism [%] | Structure (SMILES)
115% | O=C(NN1CC2CCCC2C1)C1=NN(c2ccc(Cl)cc2Cl)C(c2ccc(Cl)cc2)C1 (centres unmarked) [Example 193, 5-(4-Chloro-phenyl)-1-(2,4-dichloro-phenyl)-4,5-dihydro-1H-pyrazole-3-carboxylic acid (hexahydro-cyclopenta[c]pyrrol-2-yl)-amide hydrochloride]
